Structures can show the parent of a compound that is named as a salt. Where two headings read alike, the source gives them in different places. Square brackets hold non-standard residues; d marks the D form. Peptide text beside a SMILES is read from it. * marks the point of attachment. Sta = CC(C)C[C@H](N)[C@@H](O)CC(=O)O; Isovaleryl = CC(C)CC(=O)*
Tested on: PRKACA-PRKAR2A interaction (SmBiT-PRKACA / LgBiT-PRKAR2A), protein kinase A
Design: NanoLuc complementation counter-screen in cell extract, PRKACA with PRKAR2A, loss of luminescence, detects NanoLuc interference
Details: 0.5 h, 20 µM, inhibitor
[1] = counter-screen for NanoLuc interference
[2] = counter-screen for NanoLuc interference, Inh (PKA)

SMILES | Inh (PKA) [1] [%] | other results
Fc1cc(F)c2c(c1)[C@H]1C=CC[C@H]1C(c1cccnc1)N2 (mixture of isomers) [UM0142231:01, Golgicide A] | 20.05 | 
CC(=O)N1CCN(c2ccc(OC[C@@H]3CO[C@@](Cn4ccnc4)(c4ccc(Cl)cc4Cl)O3)cc2)CC1 (racemic) [UM0118636:05, Ketoconazole] | 5.554 | 
CC1COC2(CCN(c3nc(=O)c4cc(C(F)(F)F)cc([N+](=O)[O-])c4s3)CC2)O1 (racemic) [UM0141871:01, BTZ043 Racemate] | 1.801 | 
O[C@@H](CNC[C@H](O)[C@H]1CCc2cc(F)ccc2O1)[C@@H]1CCc2cc(F)ccc2O1 (racemic) [UM0142211:01, Nebivolol] | 3.79 | 
O=C1NC(=O)C(=Cc2ccc(-c3ccc(F)cc3)o2)S1 (stereo in doubt) [UM0142434:01, CAY10505] | 43.9 | 
CN(C)Cc1cccc(N/C(=C2\C(=O)Nc3cc(C(=O)N(C)C)ccc32)c2ccccc2)c1 [BIX02189] | 9.078 | 
Oc1ccc(Nc2nc(-c3ccc(Cl)cc3)cs2)cc1 [UM0013692:02, SKI II] | 14.65 | 
O=C(O)c1ccccc1O [UM0038620:02, Salicylic acid] | 0.4961 | 
O=C(Oc1cc(S(=O)(=O)c2ccccc2)ccc1[N+](=O)[O-])c1ccc(Cl)cc1 [UM0041523:03, BTB06584] | 10.87 | 
COc1cc2ncnc(Nc3cccc(Cl)c3)c2cc1OC [UM0044591:06, AG-1478] | 16.45 | 
COc1ccc2[nH]c([S+]([O-])Cc3ncc(C)c(OC)c3C)nc2c1 (stereo not drawn) [UM0048901:05, Omeprazole] | -0.07908 | 
OC[C@@H](O)[C@@H](O)[C@@H](O)CO [UM0050273:04, Ribitol] | 0.444 | 
OC[C@@H](O)[C@H](O)[C@@H](O)CO [UM0050273:05, Xylitol] | -1.935 | 
Oc1c2ccccc2c2c3c(cccc13)N=N2 [UM0051399:06, SP 600125] | 23.18 | 
Cn1c(=O)c2c(ncn2CC(O)CO)n(C)c1=O (stereo not drawn) [UM0052188:04, Dyphylline] | 1.648 | 
COC(=O)C1=CCCN(C)C1 [UM0053253:04, Arecoline hydrobromide] |  | Inh (PKA): -0.2973%
CC(C)(C)c1cc(C(=O)/C(C#N)=N/Nc2cccc(Cl)c2)no1 [UM0055456:02, ESI-09] | 77.71 | 
O=C(O)CCc1nc(-c2ccccc2)c(-c2ccccc2)o1 [UM0056108:04, Oxaprozin] | 7.48 | 
CN(C)NC(=O)CCC(=O)O [UM0056235:02, Daminozide] |  | Inh (PKA): 2.677%
CCOC(=O)c1ccc(NC2CCCCC2)c(N)c1 [UM0065946:02, Ferrostatin-1 (Fer-1)] | 10.75 | 
CC(=O)Nc1ccc(NC(=S)NC(=O)c2ccc(C(C)(C)C)cc2)cc1 [UM0075879:02, Tenovin-1] | 12.95 | 
CCN(CC)CCOC(=O)C(c1ccccc1)c1ccccc1 [UM0118069:03, Adiphenine HCl] | 2.953 | 
CN(C)CCC=C1c2ccccc2CCc2ccccc21 [UM0118081:03, Amitriptyline HCl] | 6.05 | 
COc1ccc(C(Cl)=C(c2ccc(OC)cc2)c2ccc(OC)cc2)cc1 [UM0118083:03, Chlorotrianisene] | 17.63 | 

SMILES | Inh (PKA) [1] [%] | other results
CCCCC(CC)CNC(=N)NC(=N)NCCCCCCNC(=N)NC(=N)NCC(CC)CCCC (stereo not drawn) [UM0118099:03, Alexidine dihydrochloride] | 24.16 | 
CN(C)CCCN1c2ccccc2Sc2ccc(Cl)cc21 [UM0118114:03, Chlorpromazine HCl] | 15.72 | 
Cc1oncc1C(=O)Nc1ccc(C(F)(F)F)cc1 [UM0118141:03, Leflunomide] | 16.35 | 
O=C(O)Cc1ccccc1Nc1c(Cl)cccc1Cl [UM0118146:04, Diclofenac Sodium] |  | Inh (PKA) [2]: 5.073%
Cn1c(=O)c2[nH]cnc2n(C)c1=O [UM0118147:03, Aminophylline] | 0.6753 | 
C=C(C)[C@@H]1CC[C@]2(C(=O)O)CC[C@]3(C)[C@H](CC[C@@H]4[C@@]5(C)CC[C@H](O)C(C)(C)[C@@H]5CC[C@]43C)[C@@H]12 [UM0118149:03, Betulinic acid] | 14.84 | 
C[C@H](CS)C(=O)N1CCC[C@H]1C(=O)O [UM0118157:03, Captopril] | 5.226 | 
CCCC(C(=O)OCCN(CC)CC)(c1ccccc1)c1ccccc1 [UM0118177:04, SKF 525A (hydrochloride)] | 14.38 | 
OCCN(CCO)c1nc(N2CCCCC2)c2nc(N(CCO)CCO)nc(N3CCCCC3)c2n1 [UM0118197:03, Dipyridamole] | 27.31 | 
NCC1(CC(=O)O)CCCCC1 [UM0118203:03, Gabapentin] |  | Inh (PKA) [2]: 0.7345%
CCN(CC)C(=S)SSC(=S)N(CC)CC [UM0118234:04, Disulfiram] | 21.36 | 
CC[N+](C)(C)c1cccc(O)c1 [UM0118243:03, Edrophonium (chloride)] | -0.559 | 
CC(C)C(=O)Nc1ccc([N+](=O)[O-])c(C(F)(F)F)c1 [UM0118278:03, Flutamide] | 16.36 | 
CC[N+](CC)(CC)CCOc1cccc(OCC[N+](CC)(CC)CC)c1OCC[N+](CC)(CC)CC [UM0118287:03, Gallamine Triethiodide] | 0.3342 | 
COc1ccc2c(c1)[nH]c1c(C)nccc12 [UM0118303:03, Harmine hydrochloride] | 2.69 | 
CN(C)CCCN1c2ccccc2CCc2ccccc21 [UM0118324:03, Imipramine (hydrochloride)] | 3.952 | 
COC(=O)Nc1nc2cc(C(=O)c3ccccc3)ccc2[nH]1 [UM0118348:03, Mebendazole] | 8.731 | 
COc1ccc2[nH]cc(CCNC(C)=O)c2c1 [UM0118349:03, Melatonin] | -1.159 | 
COC(=O)Nc1nc2cc(C(=O)c3cccs3)ccc2[nH]1 [UM0118368:03, Nocodazole] | 9.707 | 
CNCCC=C1c2ccccc2CCc2ccccc21 [UM0118370:03, Nortriptyline (hydrochloride)] | 4.028 | 
C#CCN(C)Cc1ccccc1 [UM0118374:03, Pargyline (hydrochloride)] | -0.007894 | 
C1CCc2nnnn2CC1 [UM0118375:03, Pentylenetetrazole] | -0.7973 | 
O=c1[nH]c2ccccc2n1C1CCN(CCCC(c2ccc(F)cc2)c2ccc(F)cc2)CC1 [UM0118378:03, Pimozide] | 11.2 | 
Cc1ncc(C[n+]2csc(CCO)c2C)c(N)n1 [UM0118406:03, Thiamine HCl (Vitamin B1)] | -1.554 | 

SMILES | Inh (PKA) [1] [%] | other results
Nc1ccc(S(=O)(=O)Nc2ccnn2-c2ccccc2)cc1 [UM0118414:03, Sulfaphenazole] | 2.527 | 
Nc1nc(N)c2nc(-c3ccccc3)c(N)nc2n1 [UM0118431:03, Triamterene] | 1.702 | 
CN1CCN(CCCN2c3ccccc3Sc3ccc(C(F)(F)F)cc32)CC1 [UM0118432:03, Trifluoperazine 2HCl] | 8.71 | 
Clc1ccccc1CN1CCc2sccc2C1 [UM0118440:03, Ticlopidine HCl] | 23.02 | 
CCc1nc(N)nc(N)c1-c1ccc(Cl)cc1 [UM0118442:03, Pyrimethamine] | 0.5127 | 
Cc1cccc(Nc2ccccc2C(=O)O)c1C [UM0118444:03, Mefenamic Acid] | 19.56 | 
CN1CCN2c3ccccc3Cc3ccccc3C2C1 (stereo not drawn) [UM0118451:03, Mianserin HCl] | 11.82 | 
C[N+]1(C)CCC(=C(c2ccccc2)c2ccccc2)CC1 [UM0118457:03, Diphemanil Methylsulfate] | -0.1303 | 
COc1ccc2c(c1)c(CC(=O)O)c(C)n2C(=O)c1ccc(Cl)cc1 [UM0118515:03, Indomethacin] | 5.004 | 
CS(=O)(=O)Nc1ccc([N+](=O)[O-])cc1Oc1ccccc1 [UM0118531:03, Nimesulide] | 82.23 | 
CCCCOc1ccc(CC(=O)NO)cc1 [UM0118579:03, Bufexamac] | 1.558 | 
CCCCNc1cc(C(=O)O)cc(S(N)(=O)=O)c1Oc1ccccc1 [UM0118581:03, Bumetanide] | 2.877 | 
CC(C)CC(=O)N[C@H](C(=O)N[C@H](C(=O)N[C@@H](CC(C)C)[C@@H](O)CC(=O)N[C@@H](C)C(=O)N[C@@H](CC(C)C)[C@@H](O)CC(=O)O)C(C)C)C(C)C [UM0118622:03, Pepstatin A] (Isovaleryl-VV[Sta]A[Sta]-OH) | 1.204 | 
C[C@](N)(Cc1ccc(O)c(O)c1)C(=O)O [UM0118624:04, Methyldopa] | -0.4014 | 
Nc1c2c(nc3ccccc13)CCCC2 [UM0118625:03, Tacrine hydrochloride] | 1.154 | 
C#CCN(C)CCCOc1ccc(Cl)cc1Cl [UM0118650:03, Clorgyline (hydrochloride)] | 10.49 | 
COc1cccc2c1C(=O)c1c(O)c3c(c(O)c1C2=O)C[C@@](O)(C(C)=O)C[C@@H]3O[C@H]1C[C@H](N)[C@H](O)[C@H](C)O1 [UM0118677:04, Daunorubicin HCl] | 42.12 | 
CNCCC(Oc1ccc(C(F)(F)F)cc1)c1ccccc1 (stereo not drawn) [UM0118682:03, Fluoxetine HCl] | 5.529 | 
CC(=O)Oc1cc(C(F)(F)F)ccc1C(=O)O [UM0118728:03, Triflusal] | 6.12 | 
CCCc1ncc(C[n+]2ccccc2C)c(N)n1 [UM0118750:03, Amprolium HCl] | -0.09679 | 
Cc1cc2c(cc1S(N)(=O)=O)S(=O)(=O)CCC2 [UM0118751:03, Meticrane] | 1.197 | 
COc1cc2nc(N3CCN(C(=O)C4COc5ccccc5O4)CC3)nc(N)c2cc1OC (stereo not drawn) [UM0118850:03, Doxazosin Mesylate] | 2.176 | 
Cc1cc2c(C(C)C)c(O)c(O)c(C=O)c2c(O)c1-c1c(C)cc2c(C(C)C)c(O)c(O)c(C=O)c2c1O [UM0118855:03, Gossypol] | 56.08 | 
NS(=O)(=O)c1cc(Cl)c(Cl)c(S(N)(=O)=O)c1 [UM0118893:03, Dichlorphenamide] | -0.9742 | 

Reference: article PMC9995496, “A screen for MeCP2-TBL1 interaction inhibitors using a luminescence-based assay” (Scientific Reports, 2023)
